Test results as given in patent US6589993B2, “Treating vancomycin-intermediates and multiresistant staphylococci infection with thiamphenicol or a salt thereof” (Zambon Group S.p.A., priority 2000, dated 2003).
Values after ≈ are worked out from the molar mass of the structure shown. Like-named read-outs stand apart in the source and are kept apart here.

How the values were obtained:
[1] = test system: S. aureus Met-R multiresistant strains; assay: MIC determination (NCCLS broth microdilution), methicillin-resistant multiresistant S. aureus strains; type: cell-based, Staphylococcus aureus; conditions: for MIC: antibiotype Oxa, Ery, read-out: MIC
Experimental: (§1) The MICs of thiamphenicol and of other antibiotics was obtained by using the method proposed by NCCLS (National Committee for Clinical Laboratory Standards, 1999).
(§2) Various antibiotic concentrations were added to bacteria in exponental growth (final inoculum 5×10^5 […]); dilution in Mb (cation-supplemented Mueller-Hinton broth) and distribution on a microplate by using an automatic diluting machine Biomek 1000 (Beckman, USA). MHb charged with 2% NaCl was used to test the methicillin activity.
(§3) The antibiotic concentration which hinders a visible growth after 18-24 hours of incubation at 37° C., was registered as MIC.
(§4) S. aureus ATCC 29213 was used as quality control strain.

[2] = test system: S. aureus vancomycin-intermediates (VISA) Met-R strains; assay: MIC determination (NCCLS broth microdilution), VISA Met-R strains; type: cell-based, Staphylococcus aureus; conditions: for MIC: antibiotype Oxa, Cip, Clin, Ery
Experimental: as §1, §2, §3, §4

MIC ([1]; Staphylococcus aureus, Strain 1, Cip, Clin, Gm): > 64 µg/mL | MIC ([1]; Staphylococcus aureus, Strain 2, Clin, Fos): > 64 µg/mL | MIC ([1]; Staphylococcus aureus, Strain 3, Cip, Clin, Gm): > 64 µg/mL | MIC ([1]; Staphylococcus aureus, Strain 4, Cip, Gm): ≤ 0.06 µg/mL | MIC ([1]; Staphylococcus aureus, Strain 5, Cip, Clin): > 64 µg/mL | MIC ([1]; Staphylococcus aureus, Strain 6, Clin, Gm): > 64 µg/mL | MIC ([1]; Staphylococcus aureus, Strain 7, Cip, Gm): ≤ 0.06 µg/mL | MIC ([1]; Staphylococcus aureus, Strain 8, Cip, Clin): > 64 µg/mL | MIC ([1]; Staphylococcus aureus, Strain 9, Cip, Clin, Gm): > 64 µg/mL | MIC ([1]; Staphylococcus aureus, Strain 10, Cip, Clin, Gm): 64 µg/mL (≈ 151 µM) | MIC ([1]; Staphylococcus aureus, Strain 11, Clin, Rif): > 64 µg/mL | MIC ([1]; Staphylococcus aureus, Strain 12, Cip, Clin): > 64 µg/mL | MIC ([1]; Staphylococcus aureus, Strain 13, Cip, Clin): > 64 µg/mL | MIC ([1]; Staphylococcus aureus, Strain 14, Clin, Cip): > 64 µg/mL | MIC ([1]; Staphylococcus aureus, Strain 15, Cip, Clin, Gm): > 64 µg/mL | MIC ([1]; Staphylococcus aureus, Strain 16, Cip, Clin): > 64 µg/mL | MIC ([1]; Staphylococcus aureus, Strain 17, Cip, Clin): > 64 µg/mL | MIC ([1]; Staphylococcus aureus, Strain 18, Cip, Clin, Gm): > 64 µg/mL | MIC ([1]; Staphylococcus aureus, Strain 19, Cip, Clin, Gm): > 64 µg/mL | MIC ([1]; Staphylococcus aureus, Strain 20, Cip, Clin, Gm): 64 µg/mL (≈ 151 µM) | MIC ([1]; Staphylococcus aureus, Strain 21, Cip, Clin, Gm): > 64 µg/mL | MIC ([1]; Staphylococcus aureus, Strain 22, Cip, Clin): > 64 µg/mL | MIC ([1]; Staphylococcus aureus, Strain 23, Cip, Clin, Gm): > 64 µg/mL | MIC ([1]; Staphylococcus aureus, Strain 24, Cip, Clin, Gm): > 64 µg/mL | MIC ([1]; Staphylococcus aureus, Strain 25, Cip, Clin, Gm): 64 µg/mL (≈ 151 µM) | MIC ([1]; Staphylococcus aureus, Strain 26, Cip, Clin, Fos, Gm): 64 µg/mL (≈ 151 µM) | MIC ([1]; Staphylococcus aureus, Strain 27, Cip, Clin, Fos, Gm): 64 µg/mL (≈ 151 µM) | MIC ([1]; Staphylococcus aureus, Strain 28, Cip, Clin, Gm): > 64 µg/mL | MIC ([1]; Staphylococcus aureus, Strain 29, Clin, Fos): > 64 µg/mL | MIC ([1]; Staphylococcus aureus, Strain 30, Cip, Clin, Gm, SXT, Dox): 16 µg/mL (≈ 37.6 µM) | MIC ([1]; Staphylococcus aureus, Strain 31, Cip, Clin, Fox, Gm): > 64 µg/mL | MIC ([1]; Staphylococcus aureus, Strain 32, Cip, Clin, Gm, SXT, Rif): 64 µg/mL (≈ 151 µM) | MIC ([1]; Staphylococcus aureus, Strain 33, Cip, Clin, Gm): > 64 µg/mL | MIC ([1]; Staphylococcus aureus, Strain 34, Cip, Clin, Gm): > 64 µg/mL | MIC ([1]; Staphylococcus aureus, Strain 35, Cip, Clin, Gm): 64 µg/mL (≈ 151 µM) | MIC ([1]; Staphylococcus aureus, Strain 36, Cip, Clin, Fos): 64 µg/mL (≈ 151 µM) | MIC ([1]; Staphylococcus aureus, Strain 37, Cip, Clin, Fos, Gm): 64 µg/mL (≈ 151 µM) | MIC ([1]; Staphylococcus aureus, Strain 38, Cip, Gm): ≤ 0.06 µg/mL | MIC ([1]; Staphylococcus aureus, Strain 39, Cip, Clin, Fos, Gm): 64 µg/mL (≈ 151 µM) | MIC ([1]; Staphylococcus aureus, Strain 40, Cip, Clin, Gm): > 64 µg/mL | MIC ([1]; Staphylococcus aureus, Strain 41, Cip, Clin): 64 µg/mL (≈ 151 µM) | MIC ([1]; Staphylococcus aureus, Strain 42, Cip, Clin, Gm): 64 µg/mL (≈ 151 µM) | MIC ([1]; Staphylococcus aureus, Strain 43, Cip, Clin, Gm): 64 µg/mL (≈ 151 µM) | MIC ([1]; Staphylococcus aureus, Strain 44, Cip, Clin, Gm, Rif, Dox): 64 µg/mL (≈ 151 µM) | MIC ([1]; Staphylococcus aureus, Strain 45, Cip, Clin, Gm, Rif, Dox, Fos): 64 µg/mL (≈ 151 µM) | MIC ([1]; Staphylococcus aureus, Strain 46, Clin, Fos): 64 µg/mL (≈ 151 µM) | MIC ([1]; Staphylococcus aureus, Strain 47, Cip, Clin, Gm): 64 µg/mL (≈ 151 µM) | MIC ([1]; Staphylococcus aureus, Strain 48, Cip, Clin): 64 µg/mL (≈ 151 µM) | MIC ([1]; Staphylococcus aureus, Strain 49, Cip, Gm): ≤ 0.06 µg/mL | MIC ([1]; Staphylococcus aureus, Strain 50, Cip, Clin, Gm, Rif, Dox): > 64 µg/mL | MIC50 ([1]; Staphylococcus aureus, S. aureus (50) Met-R, read-out: MIC 50%): > 64 µg/mL | MIC90 ([1]; Staphylococcus aureus, S. aureus (50) Met-R, read-out: MIC 90%): > 64 µg/mL | MIC ([2]; Staphylococcus aureus, Strain 51 VISA, read-out: MIC): > 64 µg/mL | MIC ([2]; Strain 52 VISA): >64 µg/mL | MIC Range ([2]; VISA (2) Met-R): >64 µg/mL
Compound: CCC[C@@H]1C[C@@H](C(=O)N[C@@H]([C@H]2O[C@H](SC)[C@H](O)[C@@H](O)[C@H]2O)[C@H](C)Cl)N(C)C1 [Clindamycin, clindamycin]
% susceptible at breakpoint ([1]; S. aureus (50) Met-R, NCCLS (1999) breakpoints): 8%
